Several values for one entry are separate records, joined by “and”; a condition that tells them apart may be missing. Equal entries are not always repeated.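 Each compound was tested at five concentrations against cells in 96-well plates for 48 hours. Here, GI50 denotes the concentration required for 50% inhibition of growth. The concentration for full growth arrest is given as TGI.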
Legend:
Experiment in all cases: NCI-60 cell line screen, 48 h
UO-31 renal = tested on: UO-31 renal
CCRF-CEM leukemia = tested on: CCRF-CEM leukemia
OVCAR-5 ovarian = tested on: OVCAR-5 ovarian
SNB-75 CNS = tested on: SNB-75 CNS
SK-OV-3 ovarian = tested on: SK-OV-3 ovarian
HCT-116 colon = tested on: HCT-116 colon
LOX IMVI melanoma = tested on: LOX IMVI melanoma
U251 CNS = tested on: U251 CNS
SNB-19 CNS = tested on: SNB-19 CNS
SK-MEL-2 melanoma = tested on: SK-MEL-2 melanoma

Compound | TGI (UO-31 renal) [µM] | TGI (CCRF-CEM leukemia) [µM] | TGI (OVCAR-5 ovarian) | TGI (SNB-75 CNS) | TGI (SK-OV-3 ovarian) | TGI (HCT-116 colon) | TGI (LOX IMVI melanoma) [µM] | TGI (U251 CNS) | TGI (SNB-19 CNS) | GI50 (UO-31 renal) [µM] | GI50 (CCRF-CEM leukemia) | GI50 (OVCAR-5 ovarian) | GI50 (SNB-75 CNS) | GI50 (SK-OV-3 ovarian) | GI50 (HCT-116 colon) | GI50 (LOX IMVI melanoma) | GI50 (U251 CNS) | GI50 (SNB-19 CNS) | TGI (SK-MEL-2 melanoma) | GI50 (SK-MEL-2 melanoma)
CC1(C)CCC[C@@]2(C)C1CC[C@H]1CC(O)C3(C)CCC12C3 (stereo not given in full) | 33.3 | 61.2 | 32.2 µM | 39.3 µM | 36.3 µM | 31 µM | 28.9 | 32.3 µM | 31.9 µM | – | – | – | – | – | – | – | – | – | – | –
O=c1[nH]ccc2nc(N3CCC(O)CC3)nc(Nc3cccc(C(F)(F)F)c3)c12 | 23 | > 100 | 94.3 µM | 82.1 µM | > 100 µM | 12.3 µM | 16.6 | > 100 µM | > 100 µM | 0.785 | 2100 nM | 28.3 µM | 5760 nM | 0.486 µM | 880 nM | 1420 nM | 6150 nM | 18.1 µM | – | –
CC(=O)Nc1c(C)ccc2c1C(=O)c1ccccc1C2=O | > 100 | > 100 | > 100 µM | > 100 µM | > 100 µM | > 100 µM | > 100 | > 100 µM | – | – | – | – | – | – | – | – | – | – | > 100 µM | –
Cc1cccc(Cl)c1NC(=O)/C=C/c1ccccc1 | – | > 100 | > 100 µM | 87.1 µM | > 100 µM | > 100 µM | > 100 | > 100 µM | > 100 µM | – | – | – | – | – | – | – | – | – | > 100 µM | –
CC(=O)/C(=C\C1=CCCO1)C(=O)Nc1ccccc1C | > 100 | > 100 | > 100 µM | – | > 100 µM | > 100 µM | > 100 | > 100 µM | > 100 µM | – | – | – | – | – | – | – | – | – | > 100 µM | –
Cc1ccc(/C=C/C(=O)c2sc(-c3cccnc3)nc2C)cc1 | > 100 | > 100 | > 100 µM | – | > 100 µM | – | > 100 | > 100 µM | – | – | – | – | – | – | – | – | – | – | > 100 µM | –
O=C([CH-]C(=O)c1ccccc1)c1ccccc1.O=C([CH-]C(=O)c1ccccc1)c1ccccc1.O=C([CH-]C(=O)c1ccccc1)c1ccccc1.[OH3+].[Y+3] | 14.7 | – | 66.1 µM | 8.1 µM | 40 µM | 18.3 µM | 17 | 24.2 µM | 56.4 µM | 4.51 | – | 16.9 µM | 3250 nM | 11.2 µM | 4180 nM | 3740 nM | 2930 nM | 8.04 µM | 17.9 µM | 4240 nM
CN(C)C1CCN(C(=O)c2ccc(NC(=O)Nc3ccc(-c4nc(N5CCOCC5)nc(N5CCOCC5)n4)cc3)cc2)CC1 | – | – | 0.325 µM and 2.5 µM and 0.331 µM | 0.0164 µM and 0.0427 µM and 0.0783 µM | 0.0485 µM and 0.0434 µM and 0.188 µM | 5.91 µM and 2.5 µM and 2.8 µM | – | 15.1 µM and 2.5 µM and 2.44 µM | 4.23 µM and 2.5 µM and 0.875 µM | – | 21.7 nM and 49.1 nM and 104 nM | 0.0167 µM and 0.0317 µM and 0.0166 µM | < 10 nM and 5.85 nM and 5.68 nM | < 0.01 µM and 0.00732 µM and 0.0204 µM | 28.9 nM and 44.1 nM and 35.9 nM | < 10 nM and 11.1 nM and 29.6 nM | 17.1 nM and 11.6 nM and 37.5 nM | < 0.0123 µM and 0.0131 µM and 0.0174 µM | 0.0744 µM and 0.113 µM and 0.09 µM | 23.6 nM and 24.3 nM and 19.6 nM
O=C1NC2CCC(C2)C1c1ccccc1 (stereo not given) | > 100 | > 100 | > 100 µM | > 100 µM | > 100 µM | – | > 100 | > 100 µM | > 100 µM | – | – | – | – | – | – | – | – | – | – | –
CC[O-].CC[O-].O=C1C(c2ccccc2)=C([O-])c2ccccc21.O=C1C(c2ccccc2)=C([O-])c2ccccc21.[Ti+4] | – | – | > 100 µM | > 100 µM | > 100 µM | > 100 µM | > 100 | > 100 µM | – | – | – | > 100 µM | > 100000 nM | > 100 µM | > 100000 nM | > 100000 nM | > 100000 nM | – | > 100 µM | > 100000 nM
CC/C(=C(/CC)c1ccc(O)cc1)c1ccc([O-])cc1.CC/C(=C(/CC)c1ccc(O)cc1)c1ccc([O-])cc1.O=C([CH-]C(=O)c1ccccc1)c1ccccc1.O=C([CH-]C(=O)c1ccccc1)c1ccccc1.[Ti+4] | 38.6 | > 100 | 46.7 µM | – | 52.2 µM | 17.3 µM | 27.5 | 26.9 µM | 27.8 µM | 21.8 | 4570 nM | 23.9 µM | – | 19.8 µM | 5220 nM | 12500 nM | 13900 nM | 14.7 µM | 25.2 µM | 11900 nM
COc1cc2c(cc1OCCCCCCN1CCN(c3ncnc4ccccc34)CC1)N=CC1CCCN1C2=O (stereo not given) | – | 0.302 | 13.4 µM | 0.256 µM | 7.47 µM | 0.282 µM | 1 | 1.05 µM | 3.54 µM | – | 26 nM | 0.29 µM | 40.7 nM | 0.637 µM | 55 nM | 31.9 nM | 73.6 nM | 0.208 µM | 1.83 µM | 195 nM
CCCC(C)C[C@@H](C)CC(C)/C=C(\C)c1oc(=O)c(C)c(O)c1C (stereo not given in full) (tested in a mixture with another compound) | 27 | – | 17.5 µM | 28.3 µM | – | 32.3 µM | 31.6 | 27.6 µM | 28 µM | – | – | – | – | – | – | – | – | – | 22.8 µM | –
COc1ccc(-c2ccc(/C=N/n3c(COc4ccc(Cl)cc4Cl)nn(CN4CCN(C)CC4)c3=S)o2)c([N+](=O)[O-])c1 | > 100 | 47 | 97.1 µM | > 100 µM | 80.7 µM | 29.5 µM | 25.2 | 42.8 µM | > 100 µM | 26.7 | 14300 nM | 24.2 µM | 67500 nM | 30.8 µM | 16000 nM | 11400 nM | 16900 nM | 35.2 µM | – | –
COc1ccc(C2=C(c3ccc(OC)c(OC)c3)C(=O)OC2)cc1 | > 85.9 | 0.826 | > 100 µM | – | > 100 µM | > 100 µM | > 39.1 | > 59.6 µM | > 100 µM | 0.116 | 206 nM | 0.545 µM | – | – | < 10 nM | < 10 nM | < 10 nM | 0.263 µM | > 100 µM | –
CN(C)CC/C(=N\Nc1ccccc1)c1ccccc1 | 22.8 | – | 30.9 µM | – | 34.7 µM | 34.4 µM | – | > 100 µM | > 100 µM | – | – | – | – | – | – | – | – | – | 27.2 µM | –
CC[Si](CC)(CC)OC[C@]1([C@@H]2COC(C)(C)O2)CC=CC(=O)O1 | > 100 | > 100 | > 100 µM | – | > 100 µM | > 100 µM | 81 | > 100 µM | > 100 µM | 34.8 | 6460 nM | > 100 µM | – | 59.9 µM | 39500 nM | 25000 nM | 42200 nM | 34.7 µM | > 100 µM | 41100 nM
